Test results as given in publication PMC2725291, “Genetic and Molecular Basis of Individual Differences in Human Umami Taste Perception” (PLoS ONE, 2009).
Structures can show the parent of a compound that is named as a salt. Values belong to the molecule of their own block, whether it stands above or below them.

Legend:
254 Japanese subjects = test: Taste recognition threshold measurement (staircase method); format: in vivo, human; settings: other basic taste stimuli, Figure S1
Text: A total of 254 healthy, non-obese, non-diabetic Japanese volunteers [male/female: 141/113, age: 20–36, body mass index (BMI); 16.5–24.8] participated in this study. The purpose of the study as well as the methods and procedure were explained to the participants and the patients in this manuscript have given written informed consent. All protocols were approved by the local ethics committee at Kyushu University. Subjects were asked to refrain from consuming alcohol the day before testing, caffeine on the day of testing, and food during the experimentation period. The inclusion criteria were satisfactory state of oral hygiene, non-smoking, regular work, sleep, and meal schedules.
As MSG contains sodium, great care was taken to compare individual sensitivities to MSG relative to NaCl. […] The differences in concentrations in the present study were in 0.3 log steps, which mean step-wise increases in concentration by a factor of 2.0. All solutions were made up in distilled water and used at room temperature. The testing procedure was the staircase-method modified from Pasquet et al.. Each subject evaluated all 7 tastants. The seven series of solutions were presented one after another within a single section. Within each series, the solutions with each 2.0 ml were applied to the whole tongue of each subject with a pipet in order of ascending concentrations. The subjects were asked not to swallow test solutions and rinse their mouth between two solutions with distilled water. The subject was requested to correctly name the taste quality in each series. Once the taste of two successive concentrations was recognized successfully, the subject was given the previous unrecognized concentration (first reversal). The points at which concentration sequence changed from a decrease to an increase or vice versa were designated “reversals”. The procedure was terminated after five reversals, and the threshold was calculated as the mean of the concentration values of the last four reversals.
Student's t-test was used for detection of differences in the mean recognition thresholds between males and females. The χ^2 test was used for checking Hardy-Weinberg Equilibrium (HWE) for the genotype frequencies in samples to control genotyping errors, for detection of differences in genotype and allele frequencies between high and low taste recognition threshold groups. Yates'χ^2 test was used when the number was less than 10. The mean values (the center±S.E. of gaussian curve on X-axis) in the distribution of recognition thresholds defined by TAS1R1/TAS1R3 haplotypes (TAS1R1-372A/TAS1R3-757R homozygotes, TAS1R1-372T/TAS1R3-757R homozygotes, homo- and heterozygotes containing TAS1R3-757C) were calculated using gauss fit function of Origin 5.0 (OriginLab Corp). For Ca^2+ imaging analysis, data were normalized to response to 10 µM ISO, and mean values (±S.E.) were calculated from 10∼18 independent analyses. EC50 values were calculated from individual cumulative concentration-response data using sigmoid fit functions of Origin 5.0. One factor ANOVAs were conducted for detection of differences in the distributions of recognition thresholds for umami substances among 3 groups defined by TAS1R1/TAS1R3 haplotypes, and in the responses to 5, 20 and 50 mM MSG or 0.3, 5 and 50 mM M+I among TAS1R1/TAS1R3 variants in Ca^2+ imaging analysis. When the ANOVA was significant, post-hoc Student's t-test or Fisher's PLSD test was performed to compare individual means at each umami compound or concentration. Significance level was 0.05.

[1] = biological target: T1, TAS1R1-372A and TAS1R3-757R (Homo sapiens, UniProt Q7RTX0+Q7RTX1, C757R); test: Ca2+ imaging (bath perfusion) in HEK cells transfected with TAS1R1-372A, TAS1R3-757R and Gα16-i3; format: cell-based
T1 construct: expressed in transfected cells; host or cells: HEK293
T1 sequence (Q7RTX1 21-841): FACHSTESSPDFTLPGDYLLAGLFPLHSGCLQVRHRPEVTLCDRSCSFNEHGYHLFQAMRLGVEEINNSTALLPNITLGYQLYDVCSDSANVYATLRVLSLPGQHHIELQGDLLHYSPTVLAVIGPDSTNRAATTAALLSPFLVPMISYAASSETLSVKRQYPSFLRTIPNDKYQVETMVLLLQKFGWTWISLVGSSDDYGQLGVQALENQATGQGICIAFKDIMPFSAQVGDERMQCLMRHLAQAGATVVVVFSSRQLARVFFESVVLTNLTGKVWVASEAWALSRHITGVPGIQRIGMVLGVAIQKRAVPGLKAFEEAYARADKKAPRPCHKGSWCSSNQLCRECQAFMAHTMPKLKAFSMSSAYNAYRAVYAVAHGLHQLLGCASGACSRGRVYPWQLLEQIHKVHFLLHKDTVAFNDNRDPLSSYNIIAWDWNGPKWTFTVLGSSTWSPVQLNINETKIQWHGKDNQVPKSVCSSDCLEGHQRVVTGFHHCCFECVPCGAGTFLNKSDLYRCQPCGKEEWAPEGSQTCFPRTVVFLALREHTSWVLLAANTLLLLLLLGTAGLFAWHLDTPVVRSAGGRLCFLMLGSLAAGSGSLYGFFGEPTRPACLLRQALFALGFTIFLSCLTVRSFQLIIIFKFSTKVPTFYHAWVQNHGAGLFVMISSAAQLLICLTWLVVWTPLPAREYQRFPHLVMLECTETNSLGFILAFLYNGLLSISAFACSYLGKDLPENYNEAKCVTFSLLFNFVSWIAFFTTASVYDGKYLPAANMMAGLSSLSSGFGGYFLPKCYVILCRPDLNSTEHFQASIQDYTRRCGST
T1 sequence (Q7RTX0 21-852 C757R): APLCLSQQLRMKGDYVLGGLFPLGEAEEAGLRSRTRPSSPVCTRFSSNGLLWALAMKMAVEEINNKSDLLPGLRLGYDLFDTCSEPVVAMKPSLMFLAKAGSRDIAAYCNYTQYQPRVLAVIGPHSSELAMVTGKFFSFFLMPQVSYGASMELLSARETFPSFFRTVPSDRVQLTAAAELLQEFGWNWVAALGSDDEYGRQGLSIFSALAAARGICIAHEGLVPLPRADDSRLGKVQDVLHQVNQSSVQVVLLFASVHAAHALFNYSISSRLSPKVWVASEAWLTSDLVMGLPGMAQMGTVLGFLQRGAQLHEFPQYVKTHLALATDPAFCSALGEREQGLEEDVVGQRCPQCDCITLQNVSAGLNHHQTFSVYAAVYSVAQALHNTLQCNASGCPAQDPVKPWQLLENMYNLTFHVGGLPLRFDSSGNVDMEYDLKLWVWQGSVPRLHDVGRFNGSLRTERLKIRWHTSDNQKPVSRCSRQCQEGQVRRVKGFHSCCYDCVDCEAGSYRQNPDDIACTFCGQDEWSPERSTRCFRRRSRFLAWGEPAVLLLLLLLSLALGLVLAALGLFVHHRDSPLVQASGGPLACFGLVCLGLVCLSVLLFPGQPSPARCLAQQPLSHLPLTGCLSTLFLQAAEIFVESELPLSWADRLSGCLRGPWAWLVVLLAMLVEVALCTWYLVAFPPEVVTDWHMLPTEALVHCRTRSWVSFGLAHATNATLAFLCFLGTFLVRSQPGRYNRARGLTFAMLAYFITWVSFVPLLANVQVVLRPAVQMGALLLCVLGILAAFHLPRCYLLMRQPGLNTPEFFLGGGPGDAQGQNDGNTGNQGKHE
Description: HEK293 cells were cultured at 37°C under a humidified atmosphere containing 5% CO2 in Dulbecco's modified Eagle's medium supplemented with 10% fetal bovine serum. To obtain reproducible Ca^2+ responses, cells were split every 2 days before cells become confluent. Cells were discarded after 2 months of passages and new cells were prepared from frozen-stock. For calcium imaging experiments, cells were seeded onto a 35 mm recording chamber or poly-D-lysine coated 96-well black-wall, clear-bottom recording plates. After 24 hrs at 37°C, confluent cells (60∼70%) were washed in OptiMEM medium supplemented with GlutaMAX-I (invitrogen) and plasmid DNAs were transiently cotransfected into HEK293 cells using Lipofectamine2000 regent (invitrogen) (2.0 µl per 1.0 µg DNA). TAS1Rs (or their mutants) and Gαl6-i3 were transfected using 1.5 and 1.0 µg of plasmid for 35 mm recording chambers, 0.09 and 0.06 µg of plasmid per well for 96-well plates, respectively. […] Immuno staining and Ca^2+ imaging assays were performed 36∼40 hrs after transfection.
Two Ca^2+ imaging systems were used. A bath perfusion system was used for kinetics of activation. Transfected cells in 35 mm recording chambers were washed in Hank's balanced salt solution (HBSS) containing 10 mM HEPES, pH 7.4, and loaded with 3.0 µM Fluo-4 acetoxymethyl ester (invitrogen) for 1.0 hr at 37°C. The dye-loaded cells were subjected to Ca^2+ imaging. Taste solutions diluted in HBSS were applied sequentially to the cells for 30 s with a peristaltic pump at a flow rate of 1.5 ml/min, and fluorescence images were obtained using a S Fluor ×20/0.75 objective lens (Nikon) via a cooled-CCD camera (C6790, Hamamatsu Photonics) fitted to a TE300 microscope (Nikon). Acquisition and analysis of these fluorescence images used AquaCosmos software (v. 1.3, Hamamatsu Photonics). A 3 min interval was left between each tastant application to ensure that the cells were not desensitized as a result of the previous application of tastants. Responses were measured from 30 individual responding cells. […] Isoproterenol (ISO, 10 µM) was used as positive control, which stimulates endogenous β-adrenergic receptors, providing that the Gα16-dependent signal transduction cascade was functional.

TAS1R1/TAS1R3 variants = test: Ca2+ imaging (FlexStation II), comparison across receptor variants (AR, TR, AC, TC); format: cell-based, human; settings: lactisole 5 mM; 20 mM MSG+0.5 mM IMP; Figure S5
Text: Intronless human TAS1Rs and Gαl6 expression constructs were generated in the pEF-DEST51 Gateway vector (Invitrogen) by genomic DNA-based methods. To subclone each gene into the vector, a Kozak cassette was introduced at the 5′ end before the start codon. Gαl6 chimeras were generated by PCR with mutagenic primers. The carboxyl-terminal tail of Gαl6, five-residue (EINLL) was replaced by its counterpart from Gαi3 (ECGLY; Gα16-i3), Gαgust (DCGLF; Gα16-gust), and Gα16-gust44 was generated as described. The integrity of all DNA constructs was confirmed by DNA sequencing. Point mutations in TAS1Rs were made using the same overlapping PCR strategy with mutagenic primers.
HEK293 cells were cultured at 37°C under a humidified atmosphere containing 5% CO2 in Dulbecco's modified Eagle's medium supplemented with 10% fetal bovine serum. To obtain reproducible Ca^2+ responses, cells were split every 2 days before cells become confluent. Cells were discarded after 2 months of passages and new cells were prepared from frozen-stock. For calcium imaging experiments, cells were seeded onto a 35 mm recording chamber or poly-D-lysine coated 96-well black-wall, clear-bottom recording plates. After 24 hrs at 37°C, confluent cells (60∼70%) were washed in OptiMEM medium supplemented with GlutaMAX-I (invitrogen) and plasmid DNAs were transiently cotransfected into HEK293 cells using Lipofectamine2000 regent (invitrogen) (2.0 µl per 1.0 µg DNA). […]
Student's t-test was used for detection of differences in the mean recognition thresholds between males and females. […] The mean values (the center±S.E. of gaussian curve on X-axis) in the distribution of recognition thresholds defined by TAS1R1/TAS1R3 haplotypes (TAS1R1-372A/TAS1R3-757R homozygotes, TAS1R1-372T/TAS1R3-757R homozygotes, homo- and heterozygotes containing TAS1R3-757C) were calculated using gauss fit function of Origin 5.0 (OriginLab Corp). For Ca^2+ imaging analysis, data were normalized to response to 10 µM ISO, and mean values (±S.E.) were calculated from 10∼18 independent analyses.

SMILES: [Cl-].[Na+] [NaCl]
- differences in distributions of recognition thresholds among TR, AR and TAS1R3-757C groups (254 Japanese subjects): no such differences
- Ca2+ response of transfected HEK cells ([1]; 50 mM): did not respond

SMILES: NC(=S)Nc1ccccc1 [PTC, phenylthiocarbamide]
- differences in distributions of recognition thresholds among TR, AR and TAS1R3-757C groups (254 Japanese subjects): no such differences

SMILES: C[C@H](NC(=NCC(=O)O)Nc1ccc(C#N)cc1)c1ccccc1 [SC45647]
- Ca2+ response of transfected HEK cells ([1]; 0.3 mM (data not shown)): did not respond

SMILES: OC[C@H]1OC(O)[C@H](O)[C@@H](O)[C@@H]1O (stereo partly shown) [glucose]
- Ca2+ response of transfected HEK cells ([1]; 50 mM): did not respond

SMILES: COc1ccc(OC(C)C(=O)O)cc1 (stereo not shown) [lactisole]
- inhibition effect on the responses of TAS1R1/TAS1R3 variants (TAS1R1/TAS1R3 variants): clearly observed

Continued, values first:

- differences in distributions of recognition thresholds among TR, AR and TAS1R3-757C groups (254 Japanese subjects): no such differences
SMILES: Cl [HCl]

- Ca2+ response of transfected HEK cells ([1]; 1 mM (data not shown)): did not respond
SMILES: O=C1NS(=O)(=O)c2ccccc21 [saccharin]

- differences in distributions of recognition thresholds among TR, AR and TAS1R3-757C groups (254 Japanese subjects): no such differences
- Ca2+ response of transfected HEK cells ([1]; 50 mM): did not respond
SMILES: OC[C@H]1O[C@@](CO)(O[C@H]2O[C@H](CO)[C@@H](O)[C@H](O)[C@H]2O)[C@@H](O)[C@@H]1O [sucrose]
